# Target: T1, BRD4 BD2 (Homo sapiens, UniProt O60885, Y97A)
# T1 construct: BRD4 (1-477) (Y97A) and (Y390A); made in house; host or cells: E. coli (pET15b vector)
# Assay: BRD4 BD2 TR-FRET competition assay
# Assay type: binding
# Settings: BRD4 BD2 TR-FRET; read-out: pIC50 in the BRD4 BD2 assay (converted)
row,IC50 [µM],SMILES
1,1 to 100,"CCO[C@H]1C[C@H]1NC(=O)c1cc(C(=O)NC)c(=O)n(Cc2cccc(C)c2)c1 (racemic) [Example 222, (+/−)-N5-((cis)-2-ethoxycyclopropyl)-N3-methyl-1-(3-methylbenzyl)-2-oxo-1,2-dihydropyridine-3,5-dicarboxamide]"
2,1 to 100,"CNC(=O)c1cc(C(=O)N[C@@H]2CCCC[C@H]2O)cn(Cc2ccccc2)c1=O (racemic) [Example 185, (+/−)-1-Benzyl-N5-((trans)-2-hydroxycyclohexyl)-N3-methyl-2-oxo-1,2-dihydropyridine-3,5-dicarboxamide]"
3,1 to 100,"CNC(=O)c1cc(C(=O)N[C@H]2C[C@@H](C(=O)O)C2)cn(Cc2ccccc2)c1=O [Example 169, (cis)-3-(1-Benzyl-5-(methylcarbamoyl)-6-oxo-1,6-dihydropyridine-3-carboxamido)cyclobutane-carboxylic acid]"
4,1 to 100,"CNC(=O)c1cc(C(=O)NC2CC2)cn(C(C)c2cccc(C)c2)c1=O (single isomer, unassigned) [Example 211, (S*)-N5-Cyclopropyl-N3-methyl-2-oxo-1-(1-(m-tolyl)ethyl)-1,2-dihydropyridine-3,5-dicarboxamide]"
5,1 to 100,"CNC(=O)c1cc(C(=O)NC2CCC2)cn(Cc2ccc(C(=O)OC)cc2)c1=O [Example 180, Methyl 4-((5-(cyclobutylcarbamoyl)-3-(methylcarbamoyl)-2-oxopyridin-1(2H)-yl)methyl)benzoate]"
6,1 to 100,"CNC(=O)c1cc(C(=O)NC2CC2(C)C)cn(Cc2ccccc2)c1=O (single isomer, unassigned) [Example 248, (R*)-1-Benzyl-N5-(2,2-dimethylcyclopropyl)-N3-methyl-2-oxo-1,2-dihydropyridine-3,5-dicarboxamide]"
7,1 to 100,"CCO[C@H]1C[C@H]1NC(=O)c1cc(C(=O)NC)c(=O)n(Cc2cccc(F)c2)c1 (racemic) [Example 208, (+/−)-N5-((cis)-2-ethoxycyclopropyl)-1-(3-fluorobenzyl)-N3-methyl-2-oxo-1,2-dihydropyridine-3,5-dicarboxamide]"
8,1 to 100,"CNC(=O)c1cc(C(=O)N[C@@H]2CCCC[C@@H]2O)cn(Cc2ccccc2)c1=O (racemic) [Example 186, (+/−)-1-Benzyl-N5-((cis)-2-hydroxycyclohexyl)-N3-methyl-2-oxo-1,2-dihydropyridine-3,5-dicarboxamide]"
9,1 to 100,"CNC(=O)c1cc(C(=O)N[C@H]2C[C@@H]2C)cn(Cc2cc(OC)ccn2)c1=O [Example 334, 1-((4-Methoxypyridin-2-yl)methyl)-N^3-methyl-N^5-((1S,2S)-2-methylcyclopropyl)-2-oxo-1,2-dihydropyridine-3,5-dicarboxamide]"
10,1 to 100,"CNC(=O)c1cc(C(=O)N[C@@H]2CCC[C@@H](O)C2)cn(Cc2ccccc2)c1=O (relative stereo) [Example 217, 1-Benzyl-N5-((1R*,3R*)-3-hydroxycyclohexyl)-N3-methyl-2-oxo-1,2-dihydropyridine-3,5-dicarboxamide]"
11,1 to 100,"CNC(=O)c1cc(C(=O)N[C@@H]2C[C@H]2CO)cn(C(C)c2cccc(C)c2)c1=O (mixture of isomers) [Example 267, N5-((trans)-2-(Hydroxymethyl)cyclopropyl)-N3-methyl-2-oxo-1-((S*)-1-(m-tolyl)ethyl)-1,2-dihydropyridine-3,5-dicarboxamide]"
12,1 to 100,"CNC(=O)c1cc(C(=O)N[C@H]2C[C@@H]2C)cn(Cc2cc(C)ccn2)c1=O [Example 335, N^3-Methyl-N^5-((1S,2S)-2-methylcyclopropyl)-1-((4-methylpyridin-2-yl)methyl)-2-oxo-1,2-dihydropyridine-3,5-dicarboxamide]"
13,1 to 100,"CNC(=O)c1cc(C(=O)NC2CC2CO)cn(Cc2cccc(C)c2F)c1=O (stereo not shown) [Example 214, 1-(2-Fluoro-3-methylbenzyl)-N5-(2-(hydroxymethyl)cyclopropyl)-N3-methyl-2-oxo-1,2-dihydropyridine-3,5-dicarboxamide]"
14,1 to 100,"CCOC1CC(NC(=O)c2cc(C(=O)NC)c(=O)n(Cc3ccccc3)c2)C1OC (stereo not shown) [Example 177, 1-Benzyl-N5-(3-ethoxy-2-methoxycyclobutyl)-N3-methyl-2-oxo-1,2-dihydropyridine-3,5-dicarboxamide]"
15,1 to 100,"CNC(=O)c1cc(C(=O)N[C@@H]2CCC[C@H](O)C2)cn(Cc2ccccc2)c1=O [Example 219, 1-Benzyl-N5-((1R,3S)-3-hydroxycyclohexyl)-N3-methyl-2-oxo-1,2-dihydropyridine-3,5-dicarboxamide]"
16,1 to 100,"CNC(=O)c1cc(C(=O)NC2CCC2)cn(Cc2cnn(C)c2)c1=O [Example 163, N5-Cyclobutyl-N3-methyl-1-((1-methyl-1H-pyrazol-4-yl)methyl)-2-oxo-1,2-dihydropyridine-3,5-dicarboxamide]"
17,1 to 100,"CNC(=O)c1cc(C(=O)N[C@@H]2CC[C@H]2OC)cn(Cc2ccccc2)c1=O (racemic) [Example 243, (+/−)-1-Benzyl-N5-((trans)-2-methoxycyclobutyl)-N3-methyl-2-oxo-1,2-dihydropyridine-3,5-dicarboxamide]"
18,1 to 100,"CNC(=O)c1cc(C(=O)N[C@H]2C[C@@H]2C)cn(Cc2ccc(C(=O)O)cc2)c1=O [Example 339, 4-((3-(Methylcarbamoyl)-5-(((1S,2S)-2-methylcyclopropyl)carbamoyl)-2-oxopyridin-1(2H)-yl)methyl)benzoic acid]"

# Continued, compound first:
row,SMILES,IC50 [µM]
1,"CNC(=O)c1cc(C(=O)NC2CCC2c2ccccc2)cn(Cc2ccccc2)c1=O (stereo not shown) [Example 168, 1-Benzyl-N3-methyl-2-oxo-N5-(2-phenylcyclobutyl)-1,2-dihydropyridine-3,5-dicarboxamide]",1 to 100
2,"CNC(=O)c1cc(C(=O)NC[C@@H]2CC[C@H](O)C2)cn(Cc2ccccc2)c1=O (racemic) [Example 199, (+/−)-1-Benzyl-N5-(((cis)-3-hydroxycyclopentyl)methyl)-N3-methyl-2-oxo-1,2-dihydropyridine-3,5-dicarboxamide]",1 to 100
3,"CNC(=O)c1cc(C(=O)NC2CC2)cn(CCCc2ccccc2)c1=O [Example 190, N5-Cyclopropyl-N3-methyl-2-oxo-1-(3-phenylpropyl)-1,2-dihydropyridine-3,5-dicarboxamide]",1 to 100
4,"CNC(=O)c1cc(C(=O)NC[C@@H]2CCC[C@H](O)C2)cn(Cc2ccccc2)c1=O (racemic) [Example 206, (+/−)-1-Benzyl-N5-(((1R,3S)-3-hydroxycyclohexyl)methyl)-N3-methyl-2-oxo-1,2-dihydropyridine-3,5-dicarboxamide]",1 to 100
5,"CNC(=O)c1cc(C(=O)NCC2CCCCC2O)cn(Cc2ccccc2)c1=O (stereo not shown) [Example 194, 1-Benzyl-N5-((2-hydroxycyclohexyl)methyl)-N3-methyl-2-oxo-1,2-dihydropyridine-3,5-dicarboxamide]",1 to 100
6,"CNC(=O)c1cc(C(=O)NC2CC2)cn(C(CO)c2ccccc2)c1=O (single isomer, unassigned) [Example 324, (R*)—N^5-Cyclopropyl-1-(2-hydroxy-1-phenylethyl)-N^3-methyl-2-oxo-1,2-dihydropyridine-3,5-dicarboxamide]",1 to 100
7,"CNC(=O)c1cc(C(=O)NC2CC2)cn(CC2COc3ccccc32)c1=O (stereo not shown) [Example 268, N5-Cyclopropyl-1-((2,3-dihydrobenzofuran-3-yl)methyl)-N3-methyl-2-oxo-1,2-dihydropyridine-3,5-dicarboxamide]",1 to 100
8,"CNC(=O)c1cc(C(=O)NC[C@H]2CC[C@H](O)CC2)cn(Cc2ccccc2)c1=O [Example 200, 1-Benzyl-N5-(((trans)-4-hydroxycyclohexyl)methyl)-N3-methyl-2-oxo-1,2-dihydropyridine-3,5-dicarboxamide]",1 to 100
9,"CNC(=O)c1cc(C(=O)NC2CCC2)cn([C@@H](C)c2ccccc2)c1=O [Example 171, (S)-N5-Cyclobutyl-N3-methyl-2-oxo-1-(1-phenylethyl)-1,2-dihydropyridine-3,5-dicarboxamide]",1 to 100
10,"CNC(=O)c1cc(C(=O)NC[C@H]2CCC[C@@H]2O)cn(Cc2ccccc2)c1=O (racemic) [Example 196, (+/−)-1-Benzyl-N5-(((1R,2S)-2-hydroxycyclopentyl)methyl)-N3-methyl-2-oxo-1,2-dihydropyridine-3,5-dicarboxamide]",1 to 100
11,"CNC(=O)c1cc(C(=O)NC2CC2)cn(C(C)c2ccccc2C)c1=O (single isomer, unassigned) [Example 213, (R*)-N5-Cyclopropyl-N3-methyl-2-oxo-1-(1-(o-tolyl)ethyl)-1,2-dihydropyridine-3,5-dicarboxamide]",1 to 100
12,"CNC(=O)c1cc(C(=O)NC[C@@H]2CC[C@@H](O)C2)cn(Cc2ccccc2)c1=O (racemic) [Example 198, (+/−)-1-Benzyl-N5-(((trans)-3-hydroxycyclopentyl)methyl) N3-methyl-2-oxo-1,2-dihydropyridine-3,5-dicarboxamide]",1 to 100
13,"CNC(=O)c1cc(C(=O)NC[C@H]2CC[C@@H](O)CC2)cn(Cc2ccccc2)c1=O [Example 201, 1-Benzyl-N5-(((cis)-4-hydroxycyclohexyl)methyl)-N3-methyl-2-oxo-1,2-dihydropyridine-3,5-dicarboxamide]",1 to 100
14,"CNC(=O)c1cc(C(=O)NC2CC2)cn(CC2CCCc3[nH]cnc32)c1=O (racemic) [Example 250, (+/−)-N5-Cyclopropyl-N3-methyl-2-oxo-1-((4,5,6,7-tetrahydro-1H-benzo[d]imidazol-4-yl)methyl)-1,2-dihydropyridine-3,5-dicarboxamide]",1 to 100
15,"CNC(=O)c1cc(C(=O)NC2(CC(C)C)CC2)cn(Cc2ccccc2)c1=O [Example 173, 1-Benzyl-N5-(1-isobutylcyclopropyl)-N3-methyl-2-oxo-1,2-dihydropyridine-3,5-dicarboxamide]",1 to 100
16,"CCCC1(NC(=O)c2cc(C(=O)NC)c(=O)n(Cc3ccccc3)c2)CC1 [Example 178, 1-Benzyl-N3-methyl-2-oxo-N5-(1-propylcyclopropyl)-1,2-dihydropyridine-3,5-dicarboxamide]",1 to 100

# — patent US10428026B2, “Pyridinone dicarboxamide for use as bromodomain inhibitors” (GlaxoSmithKline Intellectual Property (No.2) Limited, priority 2015, dated 2019)
